From doi:10.1101/466938v1, “The distinct biochemical property enables thymidylate kinase as a drug target and participates in pyrimidine drug sensitivity in Candida albicans” (biorxiv, 2018)
Values after ≈ are worked out from the molar mass of the structure shown.

Key:
[1] = molecular target: T1, hTMPK (Homo sapiens, UniProt P23919); assay: NADH-coupled assay (pyruvate kinase / lactate dehydrogenase); assay type: biochemical; settings: 2 mM ATP, 100 mM Tris-HCl, 100 mM KCl, 10 mM MgCl2
T1 construct: gene DTYMK; pGEX-2T in E. coli BL21; N-terminal GST cut by thrombin
T1 sequence (P23919 1-212): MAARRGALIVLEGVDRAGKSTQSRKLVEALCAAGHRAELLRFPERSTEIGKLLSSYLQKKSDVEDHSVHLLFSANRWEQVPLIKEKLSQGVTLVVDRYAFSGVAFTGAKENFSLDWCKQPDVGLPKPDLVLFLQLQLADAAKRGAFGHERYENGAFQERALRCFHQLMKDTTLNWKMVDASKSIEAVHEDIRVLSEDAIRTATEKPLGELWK

[2] = molecular target: T2, CaTMPK (Candida albicans, UniProt Q59TV7); assay: as above; assay type: biochemical; settings: 2 mM ATP, 100 mM Tris-HCl, 100 mM KCl, 10 mM MgCl2
T2 construct: gene CAALFM_C111790WA; pGEX-2T in E. coli BL21; N-terminal GST cut by thrombin; CTG codon changed to TCG to keep native Ser68; synthetic gene GenScript #5001191-1
T2 sequence (Q59TV7 1-224 limits assumed): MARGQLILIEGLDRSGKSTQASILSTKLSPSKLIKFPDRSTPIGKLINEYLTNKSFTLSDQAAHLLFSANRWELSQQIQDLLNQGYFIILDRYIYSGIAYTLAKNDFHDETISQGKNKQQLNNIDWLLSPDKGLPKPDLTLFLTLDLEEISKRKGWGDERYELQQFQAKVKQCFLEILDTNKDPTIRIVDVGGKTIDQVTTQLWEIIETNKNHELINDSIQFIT

[3] = tested on: T3, Candida albicans F2014f090; assay: microbe, parasite or virus in culture; parameters: species or system Candida albicans strains; CLSI M27 broth microdilution, RPMI 1640, OD600 growth, MIC at 50% inhibition; settings: F2014F090, 24 h, read-out: 5-FUrd MIC (µg/mL)
T3 construct: F2014f090
Protocol: (§1) Minimum inhibitory concentrations (MICs) of 5-FUrd were determined by broth microdilution method in accordance with the guidelines in Clinical and Laboratory Standards Institute (CLSI) document M27[25], using RPMI 1640 medium containing 0.165 M MOPs (pH 7.0) and 0.2% glucose, an inoculum of 10^3 cells/well, and incubated for 24 hr at 35°C, followed by OD600 reading by TECAN SPARK plate reader. The MIC50 of 5-FUrd was determined as the lowest dosage of 5-FUrd causing 50% inhibition of the growth by using the concentrations in the range of 0.004-2μg/mL. MICs of […] of human use (5-FC; four azoles: posaconazole, voriconazole, itraconazole, fluconazole; and three echinocandins: anidulafungin, caspofungin and micafungin) were determined by the microdilution colorimetric Sensititre YeastOne SYO-09 panel (TREK Diagnostic Systems, Cleveland, OH, USA); in accordance with the manufacturer’s instructions. MICs values were determined visually, after 24 hours of incubation, as the lowest concentration of drug that caused complete inhibition (amphotericin B) or a significant diminution (≥50% inhibition; flucytosine, azoles and echinocandins) of growth relative to that of the growth control. Table 2. Minimum inhibitory concentrations of 5-FUrd and antifungal drugs of clinical used for pathogenic and drug-resistant isolates of Candida albicans^a We further tested the 5-FUrd sensitivity of a number of pathogenic C. albicans isolates from patients. […] Because 5-FC is intracellularly metabolized to 5-FU, we asked why the 5-FC-resistant isolates remained sensitive to 5-FUrd. Several mutations in 5-FC resistant strains were identified in the enzymes involved in the formation of 5-FUMP from 5-FC, including purine-cytosine permease (Fcy2), cytosine deaminase (Fca1) and uracil phosphoribosyltransferase (Fur1). These 5-FC-resistant but 5-FUrd-sensitive strains might have mutations in these genes. 5-FUrd is transported into C. albicans through uridine permease (Fui1) and is then phosphorylated to 5-FUMP by uridine kinase (Urk1). Presumably, activation of 5-FUrd metabolism by the Fui1 and Urk1 pathways can overcome the defects in genes mediating 5-FC activation, namely, Fcy2, Fca1 and Fur1, leading to toxicity, as depicted in Fig 6. One important effect of antifungal drugs is host liver toxicity.

[4] = tested on: T4, Candida albicans F2016c087; assay: microbe, parasite or virus in culture; parameters: species or system Candida albicans strains; CLSI M27 broth microdilution, RPMI 1640, OD600 growth, MIC at 50% inhibition; settings: F2016C087, 24 h, read-out: 5-FUrd MIC (µg/mL)
T4 construct: F2016c087
Protocol: as §1

[5] = tested on: T5, Candida albicans F2015f019; assay: microbe, parasite or virus in culture; parameters: species or system Candida albicans strains; CLSI M27 broth microdilution, RPMI 1640, OD600 growth, MIC at 50% inhibition; settings: F2015F019, 24 h, read-out: 5-FUrd MIC (µg/mL)
T5 construct: F2015f019
Protocol: as §1

[6] = tested on: T6, Candida albicans F2016f024; assay: microbe, parasite or virus in culture; parameters: species or system Candida albicans strains; CLSI M27 broth microdilution, RPMI 1640, OD600 growth, MIC at 50% inhibition; settings: F2016F024, 24 h, read-out: 5-FUrd MIC (µg/mL)
T6 construct: F2016f024
Protocol: as §1

[7] = tested on: T7, Candida albicans F2016g048; assay: microbe, parasite or virus in culture; parameters: species or system Candida albicans strains; CLSI M27 broth microdilution, RPMI 1640, OD600 growth, MIC at 50% inhibition; settings: F2016G048, 24 h, read-out: 5-FUrd MIC (µg/mL)
T7 construct: F2016g048
Protocol: as §1

[8] = tested on: T8, Candida albicans SC5314; assay: microbe, parasite or virus in culture; parameters: species or system Candida albicans strains; CLSI M27 broth microdilution, RPMI 1640, OD600 growth, MIC at 50% inhibition; settings: SC5314, 24 h, read-out: 5-FUrd MIC (µg/mL)
T8 construct: SC5314
Protocol: as §1

[9] = tested on: T9, Candida albicans F2014a093; assay: microbe, parasite or virus in culture; parameters: species or system Candida albicans strains; CLSI M27 broth microdilution, RPMI 1640, OD600 growth, MIC at 50% inhibition; settings: F2014A093, 24 h, read-out: 5-FUrd MIC (µg/mL)
T9 construct: F2014a093
Protocol: as §1

[10] = tested on: T10, Candida albicans F2016a067; assay: microbe, parasite or virus in culture; parameters: species or system Candida albicans strains; CLSI M27 broth microdilution, RPMI 1640, OD600 growth, MIC at 50% inhibition; settings: F2016A067, 24 h, read-out: 5-FUrd MIC (µg/mL)
T10 construct: F2016a067
Protocol: as §1

[11] = tested on: T11, Candida albicans ATCC90028; assay: microbe, parasite or virus in culture; parameters: species or system Candida albicans strains; CLSI M27 broth microdilution, RPMI 1640, OD600 growth, MIC at 50% inhibition; settings: ATCC90028, 24 h, read-out: 5-FUrd MIC (µg/mL)
T11 construct: ATCC 90028
Protocol: as §1

[12] = tested on: T12, Candida albicans F2016e085; assay: microbe, parasite or virus in culture; parameters: species or system Candida albicans strains; CLSI M27 broth microdilution, RPMI 1640, OD600 growth, MIC at 50% inhibition; settings: F2016E085, 24 h, read-out: 5-FUrd MIC (µg/mL)
T12 construct: F2016e085
Protocol: as §1

[13] = tested on: T13, Candida albicans F2017g023; assay: microbe, parasite or virus in culture; parameters: species or system Candida albicans strains; CLSI M27 broth microdilution, RPMI 1640, OD600 growth, MIC at 50% inhibition; settings: F2017G023, 24 h, read-out: 5-FUrd MIC (µg/mL)
T13 construct: F2017g023
Protocol: as §1

[14] = tested on: T14, Candida albicans F2015b076; assay: microbe, parasite or virus in culture; parameters: species or system Candida albicans strains; CLSI M27 broth microdilution, RPMI 1640, OD600 growth, MIC at 50% inhibition; settings: F2015B076, 24 h, read-out: 5-FUrd MIC (µg/mL)
T14 construct: F2015b076
Protocol: as §1

SMILES	Km [1]	Km [2]	MIC [3] [µg/mL]	MIC [4] [µg/mL]	MIC [5] [µg/mL]	MIC [6] [µg/mL]	MIC [7] [µg/mL]	MIC [8] [µg/mL]	MIC [9] [µg/mL]	MIC [10] [µg/mL]	MIC [11] [µg/mL]	MIC [12] [µg/mL]	MIC [13] [µg/mL]	MIC [14] [µg/mL]
O=c1ccn([C@H]2C[C@H](O)[C@@H](COP(=O)(O)O)O2)c(=O)[nH]1 [dUMP]	Steady-state kinetics of CaTMPK and hTMPK using different dUMP concentrations	Steady-state kinetics of CaTMPK and hTMPK using different dUMP concentrations	–	–	–	–	–	–	–	–	–	–	–	–
O=c1[nH]c(=O)n([C@@H]2O[C@H](CO)[C@@H](O)[C@H]2O)cc1F [5-FUrd, 5-fluorouridine]	–	–	0.028 ± 0.002 (≈ 0.107 µM)	0.021 ± 0.008 (≈ 0.0801 µM)	0.036 ± 0.008 (≈ 0.137 µM)	0.031 ± 0.003 (≈ 0.118 µM)	0.063 ± 0.012 (≈ 0.24 µM)	0.044 ± 0.003 (≈ 0.168 µM)	0.021 ± 0.001 (≈ 0.0801 µM)	0.049 ± 0.001 (≈ 0.187 µM)	0.03 ± 0.011 (≈ 0.114 µM)	0.076 ± 0.02 (≈ 0.29 µM)	0.043 ± 0.001 (≈ 0.164 µM)	0.026 ± 0.001 (≈ 0.0992 µM)
